# Key:
# [1] = system: Tera-2 testicular cancer cells; test: MTT cytotoxicity assay of vanadocenes, TERA-2 cells; type: cell-based, human; settings: 24 h, 1.9-250 μM
# Experimental: (§1) Human testicular cancer cell lines, Tera-2 (embryonal carcinoma) and Ntera-2 (pluripotent embryonal carcinoma) were obtained from the American Type Culture Collection (ATCC) (Rockeville, Md.) and propagated in T-25, T-75, or T-150 cm^2 tissue culture flasks (Corning Corp., Corning, N.Y.) in McCoy's 5A medium and Dulbecco's modified Eagle's medium respectively. Both media were supplemented with 10% fetal calf serum (FCS), 4 mM glutamine, 100 U/ml penicillin G, and […] streptomycin sulfate. All tissue culture reagents were obtained from Life Technologies Inc. (GIBCO-BRL), Gaithersburg, Md. Cell lines were cultivated for a minimum of two passages after thawing prior to experimentation. Other cell lines that were used in this study were the human B-lineage acute lymphoblastic leukemia (ALL) cell line NALM-6. Uckun, F. M., Evans, W. E., Forsyth, C. J., Waddick, K. G., Tuel-Ahlgren, L., Chelstrom, L. M., Burkhardt, A., Bolen, J., Myers, D. E. Biotherapy of B-cell precursor leukemia by targeting genistein to CD19-associated tyrosine kinase. Science (Washington DC) 267:886–91, 1995; T-lineage ALL cell line MOLT-3, Waurzyniak, B., Shneider, E. A., Tumer, N., Yanishevski, Y., Gunther, R., Chelstrom, L., Wendorf, H., Myers, D. E., Irvin, J. D., Messinger, Y., Ek, O., Zeren, T., Chandan-Langlie, M., Evans, W. E., Uckun, F. M. In vivo toxicity, pharmacokinetics, and antileukemic activity of TXU (anti-CD7)-pokeweed antiviral protein immunotoxin. Clinical Cancer Research 3:881–890, 1997; AML cell line HL-60, Perentesis, J. P., Waddick, K. G., Bendel, A. E., Shao, Y., Warman, B. E., Chandan-Langlie, M., and Uckun, F. M. Induction of apoptosis in multi-drug resistant andradiation-resistant acute myeloid leukemia cells by a recombinant fusion toxin directed against the granulocyte macrophage colony stimulating factor receptor. Clin. Cancer Res. 3:347–355, 1997; breast cancer cell lines MDA-MB-231 and BT-20, Uckun, F. M., Narla, R. K., Jun, X., Zeren, T., Venkatachalam, T., Waddick, K. G., Rostostev, A., Myers, D. E. Cytotoxic activity of EGF-genstein against breast cancer cells. Clin. Cancer Res. 4:901–912, 1998; glioblastoma cell lines U87 and U373, Narla, R. K., Liu, X., Myers, D. E., and Uckun, F. M. 4-(3′-Bromo-4′hydroxylphenyl)-amino-6,7-dimethoxyquinazoline (WHI-P154): A novel quinazoline derivative with potent cytotoxic activity against human glioblastoma cells. Clin. Cancer Res. 4:1405–1414, 1998.
# (§2) MTT (3-[4,5-dimethyl thiazol-2-yl]-2,5-diphenyltetrazolium bromide)-based colorimetric assays were used for evaluation of the cytotoxicity of vanadocene compounds. Mosmann, T. Rapid colorimetric assay for cellular growth and survival: application to proliferation and cytotoxicity assays. J. Immunol. Methods, 65: 55–63, 1983. Briefly, cells were harvested with 0.125% (w/v) trypsin-0.02% EDTA (GIBCO-BRL) from exponential-phase maintenance cultures and centrifuged (300 g×5 min). After suspension and counting, cells were dispensed within triplicate 96-well tissue culture plates in 100 μl volumes. After 24 h incubation, the culture medium was discarded and replaced with 100 μl of fresh medium containing serial two-fold dilutions of drugs in medium to yield 1.9 μM to 250 μM. All compounds were reconstituted in DMSO to a concentration of 100 mM, and the stock solution was made fresh for each experiment. Control wells consisted of medium containing 0.25% of DMSO alone were used for solvent control. Culture plates were then incubated for 24 h before adding 10 μl of MTT solution (5 mg/ml in PBS) to each well. Wells containing only medium and MTT were used as controls for each plate. The tetrazolium/formazan reaction was allowed to proceed for 4 h at 37° C., and then 100 μl of the solubilization buffer (10% sodium dodecyl sulfate in 0.1% HCl) were added to all wells and mixed thoroughly to dissolve the dark blue formazan crystals. […]
# [2] = system: Tera-2 and Ntera-2 human testicular cancer cell lines; test: MTT cytotoxicity assay, text statements for both testicular cancer cell lines; type: cell-based; settings: Tera-2 and Ntera-2, tested side-by-side, up to 250 μM; read-out: IC50 (cytotoxicity, two testicular cancer cell lines)
# Experimental: Human testicular cancer cell lines, Tera-2 (embryonal carcinoma) and Ntera-2 (pluripotent embryonal carcinoma) were obtained from the American Type Culture Collection (ATCC) (Rockeville, Md.) and propagated in T-25, T-75, or T-150 cm^2 tissue culture flasks (Corning Corp., Corning, N.Y.) in McCoy's 5A medium and Dulbecco's modified Eagle's medium respectively. Both media were supplemented with 10% fetal calf serum (FCS), 4 mM glutamine, 100 U/ml penicillin G, and 100 mg/ml streptomycin sulfate. All tissue culture reagents were obtained from Life Technologies Inc. (GIBCO-BRL), Gaithersburg, Md. Cell lines were cultivated for a minimum of two passages after thawing prior to experimentation.
# MTT (3-[4,5-dimethyl thiazol-2-yl]-2,5-diphenyltetrazolium bromide)-based colorimetric assays were used for evaluation of the cytotoxicity of vanadocene compounds. […] Briefly, cells were harvested with 0.125% (w/v) trypsin-0.02% EDTA (GIBCO-BRL) from exponential-phase maintenance cultures and centrifuged (300 g×5 min). After suspension and counting, cells were dispensed within triplicate 96-well tissue culture plates in 100 μl volumes. […] After an overnight incubation at 37° C., the optical densities at 540 nm were measured using a 96-well multiscanner autoreader, with the solubilization buffer serving as blank. All assays were run in triplicate and results were expressed as IC50 values.
# [3] = system: Ntera-2 testicular cancer cells; test: MTT cytotoxicity assay of vanadocenes, NTERA-2 cells; type: cell-based, human; settings: 24 h, 1.9-250 μM
# Experimental: as §1, §2
# [4] = system: 64cp5 testicular cancer cells; test: Cytotoxic activity of oxovanadium(IV) compounds, 64cp5; type: cell-based, human; settings: read-out: Cytotoxic Activity 64cp5
# Experimental: (§3) The cytotoxicity of oxovanadium (W) complexes listed in Table 6 were tested against 9 different human cancer cell lines was performed using the MTT (3-[4,5-dimethylthiazol-2-yl]-2,5-diphenyl tetrazolium bromide) assay (Boehringer Mannheim Corp., Indianapolis, Ind.) as described previously (20). Briefly, exponentially growing tumor cells were seeded into a 96-well plate at a density of 4×10^4cells/well and incubated with medium containing the oxovanadium(IV) compounds concentrations ranging from 0.1 to 250 μM for 48 hours at 37° C. in a humidified 5% CO2 atmosphere. Triplicate wells were used for each treatment. To each well, 10 μl of MTT (0.5 mg/ml final concentration) was added and the plates were incubated at 37° C. for 4 hours to allow MTT to form formazan crystals by reacting with metabolically active cells . The formazan crystals were solubilized overnight at 37° C. in a solution containing 10% SDS in 0.01 M HCl. The absorbence of each well was measured in a microplate reader (Labsystems) at 540 nm and a reference wavelength of 690 nm. To translate the OD540 values into the number of live cells in each well, the OD540 values were compared to those on standard OD540—versus—cell number curves generated for each cell line. The percent survival was calculated using the formula: % survival=Live cell number[test]/Live cell number [control]×100. The IC50 values were calculated by non-linear regression analysis using an Graphpad Prism software version 2.0 (Graphpad Software, Inc., San Diego, Calif.).
# [5] = system: HS445 Hodgkin's lymphoma cells; test: MTT cytotoxicity assay of oxovanadium(IV) compounds, HS445; type: cell-based, human; settings: 48 hr
# Experimental: as §3
# [6] = system: 833-K testicular cancer cells; test: Cytotoxic activity of oxovanadium(IV) compounds, 833-K; type: cell-based, human; settings: read-out: Cytotoxic Activity 833-K
# Experimental: as §3
# [7] = system: HL-60 cells; test: MTT cytotoxicity assay of oxovanadium(IV) compounds, HL-60; type: cell-based, human; settings: 48 hr
# Experimental: as §3
# [8] = system: U373 glioblastoma cells; test: Cytotoxic activity of oxovanadium(IV) compounds, U373; type: cell-based, human; settings: read-out: Cytotoxic Activity U373
# Experimental: as §3
# [9] = system: MOLT-3 cells; test: MTT cytotoxicity assay of oxovanadium(IV) compounds, MOLT-3; type: cell-based, human; settings: 48 hr
# Experimental: as §3
# [10] = system: Tera-2 testicular cancer cells; test: Cytotoxic activity of oxovanadium(IV) compounds, TERA-2; type: cell-based, human; settings: read-out: Cytotoxic Activity TERA-2
# Experimental: as §3
# [11] = system: BT20 breast cancer cells; test: Cytotoxic activity of oxovanadium(IV) compounds, BT20; type: cell-based, human; settings: read-out: Cytotoxic Activity BT20
# Experimental: as §3
# [12] = system: HS-SULTAN multiple myeloma cells; test: MTT cytotoxicity assay of oxovanadium(IV) compounds, HS-SULTAN; type: cell-based, human; settings: 48 hr
# Experimental: as §3
# [13] = system: PC3 prostate cancer cells; test: Cytotoxic activity of oxovanadium(IV) compounds, PC3; type: cell-based, human; settings: read-out: Cytotoxic Activity PC3
# Experimental: as §3
# [14] = system: NALM-6 cells; test: MTT cytotoxicity assay of oxovanadium(IV) compounds, NALM-6; type: cell-based, human; settings: 48 hr
# Experimental: as §3
# [15] = system: U266BL multiple myeloma cells; test: MTT cytotoxicity assay of oxovanadium(IV) compounds, U266BL; type: cell-based, human; settings: 48 hr
# Experimental: as §3
# [16] = system: ARH77 multiple myeloma cells; test: MTT cytotoxicity assay of oxovanadium(IV) compounds, ARH77; type: cell-based, human; settings: 48 hr
# Experimental: as §3, with “Briefly, exponentially growing tumor cells were seeded into a 96-well plate at a density of 4×10^4cells/well and incubated with medium containing the oxovanadium(IV) compounds concentrations ranging from 0.1 to 250 μM for 48 hours at 37° C. in a humidified 5% CO2 atmosphere.” left out
# [17] = system: NTD1 testicular cancer cells; test: Cytotoxic activity of oxovanadium(IV) compounds, NTD1; type: cell-based, human; settings: read-out: Cytotoxic Activity NTD1
# Experimental: as §3
# [18] = system: NALM-6 cells; test: In situ detection of apoptosis, confocal microscopy, NALM-6; type: cell-based, human; settings: 48 hours after treatment
# Experimental: (§4) Exponentially growing cells were seeded in 6-well tissue culture plates and incubated with fresh medium containing compounds. […] The cells were fixed in 2% paraformaldehyde, washed with PBS and pelleted by centrifuging the tubes at 1000 rpm for 5 min. Cells pellets were resuspended in 50 μl of PBS, transferred to superforst plus slides and allowed to attach for 15 min. The cells were permeabilized with 0.1% triton X-100 in 0.1% citrate buffer and incubated for 1 hr at 37° C. with the reaction mixture containing terminal deoxynucleotidyl transferase (TdT) and fluorescein isothiocyanate (FITC)-conjugated dUTP. Cells were washed with PBS to remove unbound reagents and the coverslips were mounted onto slides with Vectashield containing propidium iodide (Vector Labs, Burlingame, Calif.) and slides were viewed with a confocal laser scanning microscope. […] In control reactions, the TdT enzyme was omitted from the reaction mixture.
# [19] = system: HS-SULTAN cells; test: In situ detection of apoptosis, confocal microscopy, HS-SULTAN; type: cell-based, human; settings: 48 hours after treatment
# Experimental: as §4
Molecule,IC50 [1],IC50 [2],IC50 [3],IC50 [4],IC50 [5],IC50 [6],IC50 [7],IC50 [8],IC50 [9],IC50 [10],IC50 [11],IC50 [12],IC50 [13],IC50 [14],IC50 [15],IC50 [16],IC50 [17],"apoptotic nuclei (FITC-dUTP / propidium iodide), NALM-6 [18]","apoptotic nuclei (FITC-dUTP / propidium iodide), HS-SULTAN [19]"
"O=S(=O)([O-])[O-].[O]=[V+2] [VDSO4, vanadyl(IV) sulfate, reference compound]",> 250 µM,> 250 µM,> 250 µM,,,,,,,,,,,,,,,,
"(diaqua)(4,7-dimethyl-1,10-phenanthroline)oxovanadium(IV) sulfate [Compound 28]",,,,15.2 µM,3.3 ± 1.4 µM,6 µM,6.2 ± 2.3 µM,2.2 µM,1.37 ± 0.07 µM,57.6 µM,2.1 µM,5.1 ± 1.02 µM,5.8 µM,0.78 ± 0.1 µM,1.3 ± 0.1 µM,8.1 ± 1.6 µM,12.8 µM,many apoptotic yellow nuclei,many apoptotic yellow nuclei
